The values below come from ChEMBL document CHEMBL1153711, “Synthesis and antimycobacterial evaluation of novel 5,6-dimethoxy-1-oxo-2,5-dihydro-1H-2-indenyl-5,4-substituted phenyl methanone analogues” (Bioorg Med Chem Lett, 2009).

In this test the test system is Mycobacterium tuberculosis. Briefly: Antimycobacterial activity against Mycobacterium tuberculosis H37Rv by agar dilution method. It counts as functional. A general note: In agar dilution the substance is mixed into plates at graded concentrations.

Values after ≈ are worked out from the molar mass of the structure shown.

As usually defined, the MIC is the least concentration at which growth counts as inhibited.

Regarding `COc1cc2c(cc1OC)C(=O)C(C(=O)c1cc(OC)c(OC)c(OC)c1)C2` (stereo not drawn), the MIC is more than 6.25 µM.
As for `NNC(=O)c1ccncc1` [ISONIAZID], the figure is 0.75 µM (≈ 0.103 µg/mL).
The same measure for `COc1cc2c(cc1OC)C(=O)C(C(=O)c1ccc(Cl)cc1)C2` (stereo not drawn): 1.52 µM (≈ 0.503 µg/mL).
Take `COc1ccc(C(=O)C2Cc3cc(OC)c(OC)cc3C2=O)cc1` (stereo not drawn): the minimal inhibitory concentration (MIC) was more than 6.25 µM.
The same measure for `COc1cc2c(cc1OC)C(=O)C(C(=O)c1ccc(F)cc1)C2` (stereo not drawn): 0.1 µM (≈ 0.0314 µg/mL); for `COc1cc2c(cc1OC)C(=O)C(C(=O)c1ccc(C#N)cc1)C2` (stereo not drawn): more than 6.25 µM; for `COc1cc2c(cc1OC)C(=O)C(C(=O)c1ccccc1)C2` (stereo not drawn): 6.62 µM (≈ 1.96 µg/mL).
The same measure for `COc1cc2c(cc1OC)C(=O)C(C(=O)c1c(Cl)cccc1Cl)C2` (stereo not drawn): 2.48 µM (≈ 0.906 µg/mL); for `COc1cc2c(cc1OC)C(=O)C(C(=O)c1cccc([N+](=O)[O-])c1)C2` (stereo not drawn): 3.46 µM (≈ 1.18 µg/mL); for `COc1cc2c(cc1OC)C(=O)C(C(=O)c1ccc(N(C)C)cc1)C2` (stereo not drawn): 5.94 µM (≈ 2.02 µg/mL).
As for `COc1cc2c(cc1OC)C(=O)C(C(=O)c1ccccc1Cl)C2` (stereo not drawn), the figure is 1.82 µM (≈ 0.602 µg/mL); as for `COc1ccc(C(=O)C2Cc3cc(OC)c(OC)cc3C2=O)cc1OC` (stereo not drawn), more than 6.25 µM.
For the compound `COc1cc2c(cc1OC)C(=O)C(C(=O)c1ccc(Br)cc1)C2` (stereo not drawn), the MIC was determined as 4.94 µM (≈ 1.85 µg/mL).
